From US8404738B2 (Hoffmann-La Roche Inc., priority 2011, dated 2013)
pEC50, pIC50: −log10 of the molar value.

Experiments:
recombinant human HDAC8 = biological target: T1, recombinant human HDAC8 (Homo sapiens, UniProt Q9BY41); experiment: HDAC8 inhibition: recombinant HDAC8 fluorometric assay; format: biochemical; details: recombinant human HDAC8, substrate Ac-Arg-His-Lys-Lys(ε-acetyl)-AMC; read-out: HDAC8 IC50
T1 construct: made in house; host or cells: insect cells
T1 sequence (Q9BY41 1-377): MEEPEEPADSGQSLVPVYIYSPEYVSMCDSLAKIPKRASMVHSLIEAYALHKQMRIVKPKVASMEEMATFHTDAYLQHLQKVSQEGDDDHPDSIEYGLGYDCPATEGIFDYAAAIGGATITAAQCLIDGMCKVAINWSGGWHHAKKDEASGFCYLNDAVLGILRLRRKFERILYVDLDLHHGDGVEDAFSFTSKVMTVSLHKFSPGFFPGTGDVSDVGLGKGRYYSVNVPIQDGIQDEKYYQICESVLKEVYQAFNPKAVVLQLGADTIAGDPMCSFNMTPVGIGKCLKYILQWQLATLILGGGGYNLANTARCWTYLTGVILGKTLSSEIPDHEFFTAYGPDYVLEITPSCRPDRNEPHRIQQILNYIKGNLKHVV
Procedure, shortened: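 Recombinant human HDAC8 from insect cells was preincubated with compound for 15 min at rt, then given Ac-Arg-His-Lys-Lys(ε-acetyl)-AMC substrate for 30 min at rt. IC50 came from normalized percent inhibition with curve fitting.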

HDAC6 = biological target: T2, HDAC6 (Homo sapiens, UniProt Q9UBN7); experiment: Tubulin acetylation cytoblot assay (A549 cells); format: cell-based; details: 17-18 h incubation, tubulin acetylation as marker of HDAC6 inhibition, read-out: Tub-Ac EC50
T2 construct: endogenous in cells; host or cells: A549 cells
T2 sequence (Q9UBN7 1-1215): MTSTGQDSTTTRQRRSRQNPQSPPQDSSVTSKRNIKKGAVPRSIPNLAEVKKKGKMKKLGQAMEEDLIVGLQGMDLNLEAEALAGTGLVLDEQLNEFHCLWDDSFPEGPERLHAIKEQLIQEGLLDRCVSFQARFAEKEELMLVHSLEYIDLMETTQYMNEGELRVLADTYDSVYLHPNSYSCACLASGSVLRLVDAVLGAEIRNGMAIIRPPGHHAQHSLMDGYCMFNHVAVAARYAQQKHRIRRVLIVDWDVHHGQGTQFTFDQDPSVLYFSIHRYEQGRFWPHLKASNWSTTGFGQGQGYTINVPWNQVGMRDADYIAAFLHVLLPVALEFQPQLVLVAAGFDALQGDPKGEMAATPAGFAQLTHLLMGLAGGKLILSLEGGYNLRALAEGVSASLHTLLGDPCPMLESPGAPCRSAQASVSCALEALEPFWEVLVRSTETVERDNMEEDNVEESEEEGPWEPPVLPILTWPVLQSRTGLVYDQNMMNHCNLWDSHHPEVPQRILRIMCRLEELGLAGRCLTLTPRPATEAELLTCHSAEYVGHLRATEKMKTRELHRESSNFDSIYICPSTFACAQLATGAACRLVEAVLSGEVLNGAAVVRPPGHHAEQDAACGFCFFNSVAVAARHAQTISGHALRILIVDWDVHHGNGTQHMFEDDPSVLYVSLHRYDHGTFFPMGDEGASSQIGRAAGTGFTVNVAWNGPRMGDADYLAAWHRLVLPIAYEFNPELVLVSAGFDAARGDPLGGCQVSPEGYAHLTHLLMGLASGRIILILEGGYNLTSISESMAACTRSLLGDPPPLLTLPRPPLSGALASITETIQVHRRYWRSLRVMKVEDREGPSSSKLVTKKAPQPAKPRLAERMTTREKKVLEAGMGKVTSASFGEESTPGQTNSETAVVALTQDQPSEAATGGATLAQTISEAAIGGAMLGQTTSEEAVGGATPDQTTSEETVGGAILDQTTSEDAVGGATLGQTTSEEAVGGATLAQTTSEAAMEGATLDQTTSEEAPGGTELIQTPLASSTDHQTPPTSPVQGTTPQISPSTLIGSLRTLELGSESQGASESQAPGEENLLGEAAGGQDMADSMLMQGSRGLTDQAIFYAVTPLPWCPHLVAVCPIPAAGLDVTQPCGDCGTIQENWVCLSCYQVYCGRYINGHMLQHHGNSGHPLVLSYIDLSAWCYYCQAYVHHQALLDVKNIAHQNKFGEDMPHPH
Procedure, shortened: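 Cells were exposed to compound for 17-18 h, then fixed with formaldehyde and permeabilized with cold MeOH. They were probed for 4 h at 4° C with anti-acetylated tubulin plus HRP anti-mouse IgG (each 1:750), and read by ECL luminescence. EC50 values came from curves normalized to top and bottom controls.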

[1] = test system: p21 promoter-luciferase construct; experiment: p21 reporter gene induction (HeLa cells, p21 promoter-luciferase construct); details: for p21 RP3: relative gene level of p21 compared to MS275 at 3 μM; for p21 RP10: relative level of p21 compared to MS275 at 10 μM; for p21 RP30: relative level of p21 compared to MS275 at 30 μM;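 on all read-outs here: transfected HeLa cells exposed to compound for 15 h, luciferase luminescence read from lysates, p21 promoter lacks p53 site, proxy for cellular HDAC1/2/3 inhibition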
Method: As a surrogate for in-cell HDAC1/2/3 inhibition, p21 induction was used as a counterscreen to evaluate the selectivity of the compounds in the present invention toward HDAC6 or HDAC8.
The novel compounds of the present invention were tested for their ability to induce p21 gene expression using a reporter gene assay involving HeLa cells transfected with a p21 promoter-luciferase construct. The p21 promoter contained the Sp1/Sp3 binding site for HDAC but not the upstream p53 binding site. Briefly, the day before transfection, HeLa cells were seeded at 11,000 cells/well in a 96-well culture plate and incubated at 37° C. in 5% CO2 overnight. A transfection media was prepared prior to transfection according to the following procedure: (1) 5 μl serum-free DMEM, 0.15 μl Fugene 6 reagent, 40 ng p21-luc, 10 ng GFP were mixed gently and incubated at rt for 30 minutes; (2), then 98 μl DMEM (with 10% FBS, 1% penicillin and streptomycin) was added to the DNA: Fugene 6 reagent complex and mixed gently. For transfection, the medium was removed and replaced with 100 μl/well transfection media which was prepared according to the procedure above. After incubating the cells for 24 hours at 37° C. in 5% CO2, fresh media and test compounds were added to the wells and the cells further incubated for 15 hours at 37° C. in 5% CO2. Cells were lysed by adding 80 μl/well of a cell culture lysis reagent (Promega). 50 μl of each lysate was taken for GFP detection using an excitation wavelength of 486 nm and detection at 527 nm. 100 μl luciferase assay reagent (Promega) was then added to every 20 μl cell lysate for luminometer detection.

SMILES	pIC50 (recombinant human HDAC8)	pEC50 (HDAC6)	p21 RP3 [1]	p21 RP10 [1]	p21 RP30 [1]
O=C(NO)c1ccc(NC2CCN(c3ccc4ccccc4c3)C2=O)cc1 (stereo not drawn) [Example 38, N-Hydroxy-4-(1-naphthalen-2-yl-2-oxo-pyrrolidin-3-ylamino)-benzamide]	5.82	5.97	0.50	0.02	−0.02
O=C(NO)c1ccc(NC2CCN(C3CCCCC3)C2=O)cc1 (stereo not drawn) [Example 41, 4-(1-Cyclohexyl-2-oxo-pyrrolidin-3-ylamino)-N-hydroxy-benzamide]	6.08	5.29	0.05	0.02	0.02
O=C(NO)c1ccc(NC2CCN(Cc3ccccc3)C2=O)cc1 (stereo not drawn) [Example 42]	6.19	4.94	0.02	0.09	0.34
CC(C)(c1ccc(-c2ccccc2)cc1)N1CCC(Nc2ccc(C(=O)NO)cc2)C1=O (stereo not drawn) [Example 51, 4-[1-(1-Biphenyl-4-yl-1-methyl-ethyl)-2-oxo-pyrrolidin-3-ylamino]-N-hydroxy-benzamide]	6.04	5.05	−0.14	0.60	0.38
CC(C)(c1cccc2ccccc12)N1CCC(Nc2ccc(C(=O)NO)cc2)C1=O (stereo not drawn) [Example 52, N-Hydroxy-4-[1-(1-methyl-1-naphthalen-1-yl-ethyl)-2-oxo-pyrrolidin-3-ylamino]-benzamide]	5.98	5.55	0.14	0.53	0.58
CC1(Nc2ccc(C(=O)NO)cc2)CCN(c2ccccc2)C1=O (stereo not drawn) [Example 57, N-Hydroxy-4-(3-methyl-2-oxo-1-phenyl-pyrrolidin-3-ylamino)-benzamide]	5.53	5.58	0.05	0.03	0.01
CC1(Nc2ccc(C(=O)NO)cc2)CCN(c2cccc(Cl)c2)C1=O (stereo not drawn) [Example 59, 4-[1-(3-Chloro-phenyl)-3-methyl-2-oxo-pyrrolidin-3-ylamino]-N-hydroxy-benzamide]	6.80	6.52	0.23	0.22	0.24
CC1(Nc2ccc(C(=O)NO)cc2)CCN(c2ccc3ncccc3c2)C1=O (stereo not drawn) [Example 63, N-Hydroxy-4-(3-methyl-2-oxo-1-quinolin-6-yl-pyrrolidin-3-ylamino)-benzamide]	6.05	6.44	0.47	0.15	0.22

More lines, main results first:

pIC50 (recombinant human HDAC8)	pEC50 (HDAC6)	SMILES	p21 RP3 [1]	p21 RP10 [1]	p21 RP30 [1]
6.24	4.88	O=C(NO)c1ccc(NC2CCN(c3cccc4cccnc34)C2=O)cc1 (stereo not drawn) [Example 39, N-Hydroxy-4-(2-oxo-1-quinolin-8-yl-pyrrolidin-3-ylamino)-benzamide]	0.29	0.09	0.20
6.29	5.88	O=C(NO)c1ccc(NC2CCN(c3cccc4ncccc34)C2=O)cc1 (stereo not drawn) [Example 40, N-Hydroxy-4-(2-oxo-1-quinolin-5-yl-pyrrolidin-3-ylamino)-benzamide]	0.25	0.26	0.21
6.15	5.20	C[C@H](c1ccccc1)N1CCC(Nc2ccc(C(=O)NO)cc2)C1=O (stereo partly drawn) [Example 44]	−0.10	0.03	0.10
6.19	5.08	C[C@H](c1ccccc1)N1CCC(Nc2ccc(C(=O)NO)cc2)C1=O (stereo partly drawn) [Example 45]	−0.19	0.02	0.13
6.17	5.34	CC(C)(c1ccccc1Cl)N1CCC(Nc2ccc(C(=O)NO)cc2)C1=O (stereo not drawn) [Example 48, 4-{1-[1-(2-Chloro-phenyl)-1-methyl-ethyl]-2-oxo-pyrrolidin-3-ylamino}-N-hydroxy-benzamide]	0.24	0.08	0.23
6.31	5.01	CC(C)(c1cccc(Cl)c1)N1CCC(Nc2ccc(C(=O)NO)cc2)C1=O (stereo not drawn) [Example 49, 4-{1-[1-(3-Chloro-phenyl)-1-methyl-ethyl]-2-oxo-pyrrolidin-3-ylamino}-N-hydroxy-benzamide]	0.41	0.50	0.85
6.17	5.06	CC(C)(c1ccc(Cl)cc1)N1CCC(Nc2ccc(C(=O)NO)cc2)C1=O (stereo not drawn) [Example 50, 4-{1-[1-(4-Chloro-phenyl)-1-methyl-ethyl]-2-oxo-pyrrolidin-3-ylamino}-N-hydroxy-benzamide]	0.17	0.17	0.53
6.42	5.48	CC(C)(c1ccc2ccccc2c1)N1CCC(Nc2ccc(C(=O)NO)cc2)C1=O (stereo not drawn) [Example 53, N-Hydroxy-4-[1-(1-methyl-1-naphthalen-2-yl-ethyl)-2-oxo-pyrrolidin-3-ylamino]-benzamide]	2.37	1.21	0.13
6.09	5.32	O=C(NO)c1ccc(NC2CCN(C3(c4ccccc4)CCCC3)C2=O)cc1 (stereo not drawn) [Example 55, N-Hydroxy-4-[2-oxo-1-(1-phenyl-cyclopentyl)-pyrrolidin-3-ylamino]-benzamide]	0.43	0.20	0.50
5.95	5.55	O=C(NO)c1ccc(NC2CCN(C3(c4ccccc4)CCCCC3)C2=O)cc1 (stereo not drawn) [Example 56, N-Hydroxy-4-[2-oxo-1-(1-phenyl-cyclohexyl)-pyrrolidin-3-ylamino]-benzamide]	0.37	0.07	0.14
6.04	6.00	CC1(Nc2ccc(C(=O)NO)cc2)CCN(c2cccc(F)c2)C1=O (stereo not drawn) [Example 58, 4-[1-(3-Fluoro-phenyl)-3-methyl-2-oxo-pyrrolidin-3-ylamino]-N-hydroxy-benzamide]	0.50	0.13	0.07
5.85	5.08	CC1(Nc2ccc(C(=O)NO)cc2)CCN(c2cnc3ccccc3c2)C1=O (stereo not drawn) [Example 61, N-Hydroxy-4-(3-methyl-2-oxo-1-quinolin-3-yl-pyrrolidin-3-ylamino)-benzamide]	0.46	0.09	0.17
6.15	5.71	CC1(Nc2ccc(C(=O)NO)cc2)CCN(c2cccc3cccnc23)C1=O (stereo not drawn) [Example 62, N-Hydroxy-4-(3-methyl-2-oxo-1-quinolin-8-yl-pyrrolidin-3-ylamino)-benzamide]	0.55	0.11	0.20
